The experiment addresses T1, Adenosine receptor A3 (Rattus norvegicus, UniProt P28647).
T1 sequence (P28647 whole entry): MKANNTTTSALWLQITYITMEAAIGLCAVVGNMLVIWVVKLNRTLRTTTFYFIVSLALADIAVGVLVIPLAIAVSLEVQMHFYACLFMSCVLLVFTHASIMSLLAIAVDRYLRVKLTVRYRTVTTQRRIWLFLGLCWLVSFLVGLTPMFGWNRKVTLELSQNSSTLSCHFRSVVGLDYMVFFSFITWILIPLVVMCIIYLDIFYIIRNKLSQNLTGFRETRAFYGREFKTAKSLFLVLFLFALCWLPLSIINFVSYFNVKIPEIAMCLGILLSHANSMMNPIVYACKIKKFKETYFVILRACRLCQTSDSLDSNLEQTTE
Kind of experiment: Displacement of radioligand [125I]AB-MECA binding at rat A3 receptor expressed in CHO cells. The format is cell-based.

Ki data for two compounds are collected here from ChEMBL document CHEMBL1139581, “BCUT descriptors to predicting affinity toward A3 adenosine receptors” (Bioorg Med Chem Lett, 2005).

Each structure is given as a SMILES string. pKi: −log10 of the molar value.

One may read the pKi as −log10 of the Ki, conventionally taken in molar units. A higher pKi goes with a small Ki. The compound `CCNC(=O)[C@@H]1OC(n2cnc3c(NC(=O)Nc4ccc(S(=O)(=O)Nc5ncccn5)cc4)ncnc32)[C@@H](O)[C@H]1O` (some centres not stated) showed a pKi of 6.39.

In the case of `CCNC(=O)[C@H]1OC(n2cnc3c(NC(=O)Nc4ccc(S(=O)(=O)Nc5ccccn5)cc4)ncnc32)[C@H](O)[C@@H]1O` (some centres not stated), the pKi was 7.27.
